Assay results: patent US20100137397A1, “Chemical Compounds” (ASTRAZENECA AB, priority 2005, published 2010)

Key:
[1] = conscious dogs; cited from earlier work
hepatocytes = conditions: cited from earlier work
[2] = db/db and ob/ob mice; cited from earlier work
[3] = biological target: T1, Human recombinant liver glycogen phosphorylase a (hrl GPa) (Homo sapiens, UniProt P06737); experiment: glycogen phosphorylase a multienzyme coupled assay; format: biochemical; conditions: hrl GPa 20 nM, 8 mM glucose, pH7.2, 6 hours at 30° C.
T1 sequence (P06737 1-847): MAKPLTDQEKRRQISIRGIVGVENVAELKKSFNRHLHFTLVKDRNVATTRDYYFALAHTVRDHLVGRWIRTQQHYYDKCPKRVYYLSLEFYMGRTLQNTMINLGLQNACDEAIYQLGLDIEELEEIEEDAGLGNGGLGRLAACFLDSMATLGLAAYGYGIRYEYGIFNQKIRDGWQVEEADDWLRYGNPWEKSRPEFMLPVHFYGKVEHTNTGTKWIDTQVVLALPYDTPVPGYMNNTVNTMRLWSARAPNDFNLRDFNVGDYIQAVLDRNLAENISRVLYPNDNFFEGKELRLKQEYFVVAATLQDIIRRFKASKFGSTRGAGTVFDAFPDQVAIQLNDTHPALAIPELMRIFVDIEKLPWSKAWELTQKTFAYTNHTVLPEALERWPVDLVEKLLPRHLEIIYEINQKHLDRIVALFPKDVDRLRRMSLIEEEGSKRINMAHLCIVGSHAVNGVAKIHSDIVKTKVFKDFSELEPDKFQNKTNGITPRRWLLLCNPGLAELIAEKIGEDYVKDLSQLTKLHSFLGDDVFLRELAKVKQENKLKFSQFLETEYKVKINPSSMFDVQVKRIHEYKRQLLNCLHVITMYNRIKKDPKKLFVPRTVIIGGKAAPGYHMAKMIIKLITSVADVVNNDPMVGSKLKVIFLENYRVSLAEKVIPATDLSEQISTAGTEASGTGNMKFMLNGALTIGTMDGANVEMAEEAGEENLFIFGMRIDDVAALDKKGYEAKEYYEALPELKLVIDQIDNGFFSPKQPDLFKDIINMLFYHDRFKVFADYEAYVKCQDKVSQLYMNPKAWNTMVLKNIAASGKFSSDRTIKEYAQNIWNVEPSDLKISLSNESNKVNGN
Procedure: The activity of the compounds is determined by measuring the inhibitory effect of the compounds on glycogen degradation, the production of glucose-1-phosphate from glycogen is monitored by the multienzyme coupled assay, as described in EP 0 846 464 A2, general method of Pesce et al (Pesce, M A, Bodourian, S H, Harris, R C, and Nicholson, J F (1977) Clinical Chemistry 23, […]). The reactions were in 384well microplate format in a volume of 50 μl. The change in fluorescence due to the conversion of the co-factor NAD to NADH is measured at 340 nm excitation, 465 nm emission in a Tecan Ultra Multifunctional Microplate Reader. The reaction is in 50 mM HEPES, 3.5 mM KH2PO4, 2.5 mM MgCl2, 2.5 mM ethylene glycol-bis(b-aminoethyl ether) N,N,N′,N′-tetraacetic acid, 100 mM KCl, 8 mM D-(+)-glucose pH7.2, containing 0.5 mM dithiothreitol, the assay buffer solution. Human recombinant liver glycogen phosphorylase a (hrl GPa) 20 nM is pre-incubated in assay buffer solution with 6.25 mM NAD, 1.25 mg type III glycogen at 1.25 mg m^−1 the reagent buffer, for 30 minutes. […] The non-inhibited activity of GPa is measured in the presence of 10 μl 5% DMSO in assay buffer solution and maximum inhibition measured in the presence of 5 mgs ml^−1 N-ethylmaleimide. […] Relative Fluoresence Units (RFUs) are measured at 340 nm excitation, 465 nm emission. […]
Activity is calculated as follows:—

IC50 [3] [nM] | Compound | hepatic glucose output and arterial plasma glucose following a glucagon challenge [1] | glucagon stimulated glycogenolysis and glucose output in hepatocytes (hepatocytes) | plasma glucose concentration [2]
 | CCN1C(C)=C(C(=O)OC(C)C)C(c2ccccc2Cl)C2=C1COC2=O (stereo not shown) [Bay R 3401] | reduced significantly |  | 
 | CN(C)C(=O)[C@H](O)[C@H](Cc1ccccc1)NC(=O)c1cc2cc(Cl)ccc2[nH]1 [CP91149] |  | reduce | reduced, in a dose related manner
 | O=C(N[C@@H](Cc1ccc(F)cc1)C(=O)N1CCC(O)CC1)c1cc2cc(Cl)ccc2[nH]1 [CP320626] |  | reduce | reduced, in a dose related manner
191 | O=C(O)COC[C@@H]1c2ccccc2C[C@H]1NC(=O)c1cc2cc(Cl)sc2[nH]1 [Example 1, [((1R,2R)-2-{[(2-Chloro-6H-thieno[2,3-b]pyrrol-5-yl)carbonyl}amino]-2,3-dihydro-1H-inden-1-yl)methoxy]acetic acid] |  |  | 
14 | O=C(O)C[C@@H]1c2ccccc2C[C@H]1NC(=O)c1cc2sc(Cl)c(Cl)c2[nH]1 [Example 8, ((1R,2R)-2-{[(2,3-Dichloro-4H-thieno[3,2-b]pyrrol-5-yl)carbonyl]amino}-2,3-dihydro-1H-inden-1-yl)acetic acid] |  |  | 
